Measured values taken from patent US6265433A, “LTA4 hydrolase inhibitors” (G. D. Searle & Company, priority 1999, dated 2001).

Assays:
[1] = test system: LTB4 production in calcium ionophore stimulated human blood; assay: Inhibition of calcium ionophore-induced LTB4 production in human blood (human whole blood assay); format: cell-based; settings: human blood diluted 1:4; 15 minutes preincubation at 37° C.; calcium ionophore 20 mcg/ml, 10 minutes
Excerpt: (§1) One or more of three different assays, (1) an in vitro LTA hydrolase enzyme assay, (2) a human whole blood assay utilizing calcium ionophore stimulation, and (3) a murine ex vivo assay utilizing calcium ionophore stimulation were employed to determine the level of LTA hydrolase inhibitor activity.
LTB4 and Thromboxane Production by Calcium Ionophore Stimulated Human Blood for LTB4 Hydrolase Inhibitor Activity
One or more concentrations of the leukotriene A4 hydrolase inhibitor compounds being tested were prepared (diluted in DMSO) and 2 μl added and gently mixed with the diluted whole blood. After incubating for 15 minutes at 37° C. in a humidified incubator, calcium ionophore […] (Sigma Chemical Co., St. Louis, Mo.) was added to a final concentration of 20 mcg/ml and the incubation continued under the same conditions for an additional 10 minutes to allow LTB4 formation. The reaction was terminated by centrifugation (833 g, 10 minutes at 4° C.) and supernatant were analyzed for LTB4 and thromboxane by commercially available enzyme-linked immunoassays (Caymen Chemical Co., Ann Arbor, Mich.) according to the manufacturer's instructions. The IC50 of each test compound was determined from the amount of inhibition of LTB4 production as compared to an essentially identical assay in which no inhibitor compound was present.

[2] = test system: LTB4 production in calcium ionophore stimulated mouse blood; assay: Murine ex vivo LTB4 inhibition, calcium ionophore stimulated mouse blood after oral gavage; format: in vivo, mouse (adult male outbred mice); settings: 1 h, blood collected 60 minutes after administration, ionophore A23187 20 mcg/ml, read-out: Murine Ex Vivo LTB4 Inhibition, % I LTB4 at 1 hour after administration of 10 mg/kg
Excerpt: as §1
Ex Vivo LTB4 and Thromboxane Production by Calcium lonophore Stimulated Mouse Blood for […] Inhibitor Activity
Leukotriene A4 hydrolase inhibitor compounds of the present invention were diluted to a predetermined concentration in phosphate buffered saline containing 2% DMSO and 1% Tween 80. The compounds were administered by oral gavage to adult male outbred mice weighing approximately 20-30 gm at a dose of 10 mg/kg body weight. (Compounds given at a dose of 50 mg/kg body weight are designated in following Table by the symbol, *) Sixty (60) minutes after administration of an LTA4 inhibitor compound of the invention, blood was collected (into heparin-containing tubes) from the retroorbital sinus. […] The mixture was incubated for 10 minutes at 37° C. in a humidified incubator. The reaction was terminated by centrifugation (833 g. 10 minutes at 4° C.). Supernatant were analyzed for LTB4 and thromboxane by commercially available enzyme-linked immunoassays [Caymen Chemical Co., Ann Arbor, Mich.] in accordance with the manufacturer's instructions. The percent inhibition was determined by comparison to animals treated identically except that the solution administered by oral gavage was devoid of inhibitor compound.

[3] = biological target: T1, Recombinant Human LTA4 Hydrolase (Homo sapiens, UniProt P09960); assay: Recombinant Human LTA Hydrolase Assay (in vitro LTA hydrolase enzyme assay); format: biochemical; settings: 250 ng rhLTA4 hydrolase; 10 minutes preincubation and 10 minutes reaction at room temperature; pH 7.4
T1 construct: made in house; host or cells: Spodoptera frugiperda Sf-9 cells (baculovirus)
T1 sequence (P09960 1-611): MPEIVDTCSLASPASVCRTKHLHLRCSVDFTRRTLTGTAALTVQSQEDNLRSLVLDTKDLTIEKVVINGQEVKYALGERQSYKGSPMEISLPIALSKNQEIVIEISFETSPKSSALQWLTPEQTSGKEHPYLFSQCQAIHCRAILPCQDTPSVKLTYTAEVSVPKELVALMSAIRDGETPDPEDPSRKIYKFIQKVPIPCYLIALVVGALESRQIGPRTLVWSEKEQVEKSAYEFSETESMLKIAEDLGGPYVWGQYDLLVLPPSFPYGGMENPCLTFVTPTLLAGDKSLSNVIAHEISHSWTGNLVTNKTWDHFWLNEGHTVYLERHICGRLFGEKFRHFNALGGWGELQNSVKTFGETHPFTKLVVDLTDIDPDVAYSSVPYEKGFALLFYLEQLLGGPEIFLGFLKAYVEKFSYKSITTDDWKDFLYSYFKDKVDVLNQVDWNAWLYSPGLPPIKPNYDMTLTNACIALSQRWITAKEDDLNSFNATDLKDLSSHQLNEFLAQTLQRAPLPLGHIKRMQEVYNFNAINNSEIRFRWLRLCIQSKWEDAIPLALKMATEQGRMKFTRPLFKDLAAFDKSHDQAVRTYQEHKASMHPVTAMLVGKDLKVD
Procedure: as §1
Recombinant Human LTA Hydrolase Assay for LTA Hydrolase Inhibitor Activity
Compounds of the present invention were tested for LTA hydrolase inhibitor activity against recombinant human LTA hydrolase (rhLTAH). […] Briefly, LTA hydrolase encoding DNA was amplified by polymerase chain reaction using a pair of oligonucleotide primers based on the nucleotide sequence from the 5'-end, and the complement of the 3'-end, of the coding region of the LTA hydrolase gene, the nucleotide sequence of which gene is known. […] A λgt11 human placental cDNA library (Clonetech, Palo Alto, Calif.) provided the nucleic acid template.
One or more predetermined amounts of a compound of the invention were incubated in assay buffer (0.1 M potassium phosphate, 5 mg/ml fatty acid free BSA, 10% DMSO, Ph 7.4) for 10 minutes at room temperature with 250 ng of recombinant hLTA4 H to allow binding, if any, between the enzyme and inhibitor. The stock enzyme solution was 1 mg/m. LTA4 hydrolase, 50 Mm Tris, Ph 8.0, 150 Mm NaCl, 2.5 Mm beta-mercaptoethanol, 50% glycerol. The specific activity of the enzyme was about 650 Nmoles/min/mg. LTA4 (i.e., substrate) was prepared from the methyl ester of LTA4 (Biomol, Inc., Plymouth Meeting, Pa.) by treating the methyl ester with 30 molar equivalents of LiOH at room temperature for 18 hours. The LTA4 substrate in its free acid form was kept frozen at -80° C. until needed. LTA4 (free acid) was thawed and diluted in assay buffer (minus DMSO) to a concentration of 350 ng/ml and 25 μl (8ng) of LTA4 substrate was added to the reaction mixture (total volume of reaction mixture=200 μl at time zero. Each reaction was carried out at room temperature for 10 minutes. The reaction was stopped by diluting 25 μl of the reaction mixture with 500 μl of the assay buffer without DMSO. […] was quantified in the diluted sample by a commercially available enzyme-linked immunoassay [Caymen Chemical Col. Ann Arbor, Mich.] using the method recommended in the manufacturer's instructions and compared to the amount of […] produced in a negative control (i.e., essentially identical conditions except without addition of an inhibitor compound). The IC50 was routinely calculated from the data produced.

LTA4 hydrolase = settings: background statement; cited from earlier work

| Structure (SMILES) | IC50 [1] [µM] | inhibition at 10 mg/kg [2] [%] | IC50 [3] [µM] | LTA4 hydrolase inhibitory activity (LTA4 hydrolase) |
| --- | --- | --- | --- | --- |
| c1coc(-c2ccc(Oc3ccc(OCCN4CCCC4)cc3)cc2)n1 [Example 7] | 0.55 | 93 | – | – |
| c1ccc(-c2ccc(Oc3ccc(OCCN4CCCC4)cc3)cc2)cc1 [Example 8] | 0.14 | 57 | 0.0066 | – |
| c1cc(Oc2ccc(C3=NCCO3)cc2)ccc1OCCN1CCCC1 [Example 10] | 0.55 | 83 | 0.59 | – |
| CCOC(=O)C1CCN(CCOc2ccc(Oc3ccc(-c4ccccc4)cc3)cc2)CC1 [Example 11] | 0.72 | 90 | 0.34 | – |
| O=C(O)C1CCN(CCOc2ccc(Oc3ccc(-c4ccccc4)cc3)cc2)CC1 [Example 12] | 0.22 | 87 | – | – |
| COC(=O)CCN(C)CCCOc1ccc(Oc2ccc(-c3ccccc3)cc2)cc1 [Example 13] | 0.79 | 63 | 0.55 | – |
| CN(CCCOc1ccc(Oc2ccc(-c3ccccc3)cc2)cc1)CCC(=O)O [Example 14] | 0.19 | 78 | – | – |
| CN(CCCOc1ccc(Oc2ccc(-c3nccs3)cc2)cc1)CCC(=O)O [Example 17] | 0.072 | 87 | 0.95 | – |
| CN(CCCOc1ccc(Oc2ccc(-c3ncco3)cc2)cc1)CCC(=O)O [Example 18] | 0.19 | 94 | 0.027 | – |
| CCN(CCCOc1ccc(Oc2ccc(-c3ncco3)cc2)cc1)CCC(=O)O [Example 19] | 0.24 | 93 | 0.34 | – |
| CC(C)C[C@H](NC(=O)[C@@H](O)[C@H](N)Cc1ccccc1)C(=O)O [bestatin] | – | – | – | exhibit LTA4 hydrolase inhibitory activity |
| C[C@H](CS)C(=O)N1CCC[C@H]1C(=O)O [captopril] | – | – | – | exhibit LTA4 hydrolase inhibitory activity |
